Among the data in US8946439B2, “Amide compounds, compositions and uses thereof” (Evotec AG, priority 2008, dated 2015) are IC50 values, retold here.

A value given as a limit tells only on which side of the number the result lay.

The target of test [1] is T1, hP2X3 (Homo sapiens, UniProt P56373).
T1 construct: expressed in transfected cells; host or cells: e.g. HEK293 or 1321N1
T1 sequence (P56373 1-397): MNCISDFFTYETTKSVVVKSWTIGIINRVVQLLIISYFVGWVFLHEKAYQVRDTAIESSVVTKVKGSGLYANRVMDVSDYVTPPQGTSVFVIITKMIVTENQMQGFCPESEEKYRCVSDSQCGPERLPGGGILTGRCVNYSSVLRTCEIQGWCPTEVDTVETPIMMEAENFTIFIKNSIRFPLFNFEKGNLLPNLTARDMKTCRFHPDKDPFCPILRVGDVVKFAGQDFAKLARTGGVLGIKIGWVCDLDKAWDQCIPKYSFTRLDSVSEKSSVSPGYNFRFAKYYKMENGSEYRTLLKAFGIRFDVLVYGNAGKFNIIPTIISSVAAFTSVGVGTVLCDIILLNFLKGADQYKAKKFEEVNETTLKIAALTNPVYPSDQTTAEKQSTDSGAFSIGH
Description: Calcium uptake assay (P2X antagonist assay), P2X3 homomer. It is filed as cell-based. The note with it: Ca influx (calcium uptake assay), hP2X3; read-out: IC50 hP2X3. An outline of the steps: (§1)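 Stably or transiently transfected HEK293 or 1321N1 cells; the heteromer is made by adding P2X3 to a P2X2-stable line, with heteromer function isolated pharmacologically. The peak-minus-baseline FLIPR calcium signal gives % inhibition and a 4-parameter-logistic IC50.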

The target in test [2] is T2, hP2X2/3H (Homo sapiens, UniProt P56373+Q9UBL9).
T2 construct: expressed in transfected cells; host or cells: e.g. HEK293 or 1321N1
T2 sequence (Q9UBL9 1-471): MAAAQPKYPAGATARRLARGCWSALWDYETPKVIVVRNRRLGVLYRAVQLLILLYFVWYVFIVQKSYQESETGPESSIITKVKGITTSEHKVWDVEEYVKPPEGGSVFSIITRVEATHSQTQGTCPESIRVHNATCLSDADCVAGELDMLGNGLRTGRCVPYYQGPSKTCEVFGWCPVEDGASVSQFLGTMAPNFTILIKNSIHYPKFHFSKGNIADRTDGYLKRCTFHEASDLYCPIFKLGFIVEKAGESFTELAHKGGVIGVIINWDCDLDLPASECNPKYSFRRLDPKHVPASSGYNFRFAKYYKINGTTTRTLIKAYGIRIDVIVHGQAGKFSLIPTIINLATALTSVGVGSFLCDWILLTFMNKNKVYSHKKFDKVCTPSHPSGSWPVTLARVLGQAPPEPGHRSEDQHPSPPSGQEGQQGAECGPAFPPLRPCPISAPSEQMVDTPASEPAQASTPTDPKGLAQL
T2 sequence (P56373 1-397): T1 sequence (P56373 1-397)
The test is described as follows: Calcium uptake assay (P2X antagonist assay), P2X2/3 heteromer. It is filed as cell-based. To be noted: Ca influx (calcium uptake assay), hP2X2/3H; read-out: IC50 hP2X2/3H. An outline of the steps: as §1

As to `Cc1ccc(-c2cc(OCC(O)CO)cc(C(=O)N[C@H](C)c3ccc(C)nc3)c2)c(C#N)c1` (stereo partly drawn) [Compound 315, 2′-Cyano-5-(2,3-dihydroxypropoxy)-4′-methyl-N—((R)-1-(6-methylpyridin-3-yl)ethyl)biphenyl-3-carboxamide], the IC50 in test [1] was under 100 nM; in test [2] it was 100 to 500 nM.
On the same counts, the results for `COCC(C)Oc1cc(C(=O)N[C@H](C)c2ccc(C)nc2)cc(-c2ccc(C)cc2C#N)c1` (some centres unmarked) [Compound 316] are under 100 nM and under 100 nM.
For `Cc1ccc(-c2cc(OCC3COCCO3)cc(C(=O)N[C@H](C)c3ccc(C)nc3)c2)c(C#N)c1` (some centres unmarked) [Compound 317], in that order: under 100 nM and under 100 nM.
As to `Cc1ccc(-c2cc(OCC(O)CO)cc(C(=O)N[C@H](C)c3ccc(C)nc3)c2)cc1` (some centres unmarked) [Compound 318], the IC50 in test [1] and in test [2] was under 100 nM each time.
As for `Cc1ccc(-c2cc(C(=O)N[C@H](C)c3ccc(C)nc3)cc(C(O)CO)c2)nc1` (some centres unmarked) [Compound 319], the IC50 in test [1] was under 100 nM; in test [2], 100 to 500 nM.
For `Cc1ccc(-c2cc(CO)cc(C(=O)N[C@H](C)c3ccc(C)nc3)c2)cc1` [Compound 320], in that order: under 100 nM and 100 to 500 nM.
On the same counts, the results for `Cc1ccc(-c2cc(C(=O)N[C@H](C)c3ccc(C)nc3)cc(C(C)O)c2)cc1` (some centres unmarked) [Compound 321] are under 100 nM and under 100 nM.
On the same counts, the results for `Cc1ccc(-c2cc(C(=O)N[C@H](C)c3cnc(C)nc3)cc(S(C)(=O)=O)c2)nc1` [Compound 322] are under 100 nM and 100 to 500 nM.
For `COCC(CO)Oc1cc(C(=O)N[C@H](C)c2ccc(C)nc2)cc(-c2ccc(C)cc2)c1` (some centres unmarked) [Compound 323], the IC50 in test [1] and in test [2] was under 100 nM each time.
For the compound `Cc1ccc(-c2cc(OCC3CNCCO3)cc(C(=O)N[C@H](C)c3ccc(C)nc3)c2)c(C#N)c1` (stereo partly drawn) [Compound 324, 2′-Cyano-4′-methyl-N—((R)-1-(6-methylpyridin-3-yl)ethyl)-5-(morpholin-2-ylmethoxy)biphenyl-3-carboxamide], the IC50 in test [1] is under 100 nM; in test [2], 100 to 500 nM.
For `Cc1ccc(-c2cc(OCC3CNCCO3)cc(C(=O)N[C@H](C)c3ccc(C)nc3)c2)cc1` (some centres unmarked) [Compound 325], in that order: under 100 nM and 100 to 500 nM.
On the same counts, the results for `Cc1ccc(-c2cc(OCC3COCCO3)cc(C(=O)N[C@H](C)c3ccc(C)nc3)c2)cc1` (some centres unmarked) [Compound 326] are under 100 nM and 100 to 500 nM.
On the same counts, the results for `Cc1ccc(-c2cc(OC3CNCC3O)cc(C(=O)N[C@H](C)c3ccc(C)nc3)c2)cc1` (some centres unmarked) [Compound 327] are under 100 nM and 100 to 500 nM.
Consider `COCC(C)Oc1cc(C(=O)N[C@H](C)c2ccc(C)nc2)cc(-c2ccc(C)cn2)c1` (some centres unmarked) [Compound 328], for which the IC50 in test [1] and in test [2] was under 100 nM each time.
For `Cc1ccc(-c2cc(OCCO)cc(C(=O)N[C@H](C)c3ccc(C)nc3)c2)nc1` [Compound 329], the IC50 in test [1] was under 100 nM; in test [2], 100 to 500 nM.
On the same counts, the results for `Cc1ccc(-c2cc(C(=O)N[C@H](C)c3ccc(C)nc3)cc(C(O)c3cncn3C)c2)cc1` (some centres unmarked) [Compound 330] are under 100 nM and under 100 nM.
For `Cc1ccc(-c2cc(C(=O)N[C@H](C)c3ccc(C)nc3)cc(C(C)O)c2)nc1` (some centres unmarked) [Compound 331], in that order: under 100 nM and under 100 nM.
`Cc1ccc(-c2cc(OCC3COCCO3)cc(C(=O)N[C@H](C)c3ccc(C)nc3)c2)nc1` (some centres unmarked) [Compound 332]: the figures for the IC50 in test [1] and in test [2] were under 100 nM and 100 to 500 nM, respectively.
For `Cc1ccc(-c2cc(OC3CCOC3)cc(C(=O)N[C@H](C)c3ccc(C)nc3)c2)nc1` (some centres unmarked) [Compound 333], in that order: under 100 nM and under 100 nM.
For `Cc1ccc(-c2cc(OCC3CCOC3)cc(C(=O)N[C@H](C)c3ccc(C)nc3)c2)nc1` (some centres unmarked) [Compound 334], in that order: under 100 nM and under 100 nM.
On the same counts, the results for `Cc1ccc(-c2cc(OCC3CCCO3)cc(C(=O)N[C@H](C)c3ccc(C)nc3)c2)nc1` (some centres unmarked) [Compound 335] are under 100 nM and under 100 nM.
Turning to `Cc1ccc(-c2cc(OC3COCC3O)cc(C(=O)N[C@H](C)c3ccc(C)nc3)c2)cc1` (stereo partly drawn) [Compound 336, 5-(4-Hydroxytetrahydrofuran-3-yloxy)-4′-methyl-N—((R)-1-(6-methylpyridin-3-yl)ethyl)biphenyl-3-carboxamide], the IC50 in test [1] and in test [2] was under 100 nM each time.
Consider `Cc1ccc(-c2cc(OC3COCC3O)cc(C(=O)N[C@H](C)c3ccc(C)nc3)c2)c(C#N)c1` (some centres unmarked) [Compound 337], for which the IC50 in test [1] and in test [2] was under 100 nM each time.
For the compound `Cc1ccc(-c2cc(OC3CNCC3O)cc(C(=O)N[C@H](C)c3ccc(C)nc3)c2)c(C#N)c1` (stereo partly drawn) [Compound 338, 2′-Cyano-5-(4-hydroxypyrrolidin-3-yloxy)-4′-methyl-N—((R)-1-(6-methylpyridin-3-yl)ethyl)biphenyl-3-carboxamide], the IC50 in test [1] is under 100 nM; in test [2], 100 to 500 nM.
On the same counts, the results for `Cc1ccc(-c2cc(OC3CNCC3O)cc(C(=O)N[C@H](C)c3ccc(C)nc3)c2)nc1` (some centres unmarked) [Compound 339] are under 100 nM and 100 to 500 nM.
Take `Cc1ccc(-c2cc(CN(C)C)cc(C(=O)N[C@H](C)c3ccc(C)nc3)c2)cc1` [Compound 340, (R)-5-((Dimethylamino)methyl)-4′-methyl-N-(1-(6-methylpyridin-3-yl)ethyl)biphenyl-3-carboxamide]: the values for the IC50 in test [1] and in test [2] were under 100 nM and 100 to 500 nM, respectively.
`Cc1ccc(-c2cc(Oc3nc(Cl)cs3)cc(C(=O)N[C@H](C)c3ccc(C)nc3)c2)cc1` [Compound 341]: the IC50 is 100 to 500 nM in test [1] and under 100 nM in test [2].
For `CCN(CC)CC(O)c1cc(C(=O)N[C@H](C)c2ccc(C)nc2)cc(-c2ccc(C)cn2)c1` (stereo partly drawn) [Compound 342, 3-(2-(Diethylamino)-1-hydroxyethyl)-5-(5-methylpyridin-2-yl)-N—((R)-1-(6-methylpyridin-3-yl)ethyl)benzamide], in that order: under 100 nM and 100 to 500 nM.
For `CCN(CC)CC(O)c1cc(C(=O)N[C@H](C)c2ccc(C)nc2)cc(-c2ccc(C)cc2C#N)c1` (some centres unmarked) [Compound 343], in that order: under 100 nM and 100 to 500 nM.
On the same counts, the results for `Cc1ccc(-c2cc(OCC(O)CO)cc(C(=O)N[C@H](C)c3ccc(C)nc3)c2)nc1` (some centres unmarked) [Compound 344] are under 100 nM and 100 to 500 nM.
Turning to `Cc1ccc(-c2cc(OC(C)CO)cc(C(=O)N[C@H](C)c3ccc(C)nc3)c2)nc1` (some centres unmarked) [Compound 345], the IC50 in test [1] and in test [2] was under 100 nM in each case.
With `Cc1ccc(-c2cc(OC(C)CO)cc(C(=O)N[C@H](C)c3ccc(C)nc3)c2)cc1` (some centres unmarked) [Compound 346], the IC50 in test [1] and in test [2] was under 100 nM throughout.
`Cc1ccc(-c2cc(OC3COCC3O)cc(C(=O)N[C@H](C)c3ccc(C)nc3)c2)nc1` (some centres unmarked) [Compound 347]: the values for the IC50 in test [1] and in test [2] were under 100 nM and 100 to 500 nM, respectively.
For `COCC(CO)Oc1cc(C(=O)N[C@H](C)c2ccc(C)nc2)cc(-c2ccc(C)cn2)c1` (some centres unmarked) [Compound 348], in that order: under 100 nM and under 100 nM.
For `Cc1ccc(-c2cc(OCC3CNCCO3)cc(C(=O)N[C@H](C)c3ccc(C)nc3)c2)nc1` (some centres unmarked) [Compound 349], in that order: under 100 nM and 100 to 500 nM.
As for `Cc1ccc(-c2cc(C(=O)NCc3ncc(C(F)(F)F)cc3Cl)cc(S(C)(=O)=O)c2)nc1` [Compound 350], the IC50 in test [1] is under 100 nM; in test [2], 100 to 500 nM.
On the same counts, the results for `Cc1ccc(-c2cc(C(=O)NCc3ccn4ccnc4c3)cc(S(C)(=O)=O)c2)nc1` [Compound 351] are under 100 nM and 100 to 500 nM.
For `Cc1ccc(-c2cc(C(=O)NCc3ccc4c(c3)S(=O)(=O)CC4)cc(S(C)(=O)=O)c2)nc1` [Compound 352], in that order: under 100 nM and 100 to 500 nM.
For `Cc1ccc(-c2cc(C(=O)N[C@H](C)c3cnc(C)nc3)cc(C(O)C(F)(F)F)c2)c(C#N)c1` (some centres unmarked) [Compound 353], in that order: under 100 nM and under 100 nM.
In the case of `Cc1ccc(-c2cc(C(=O)N[C@H](C)c3cnc(C)nc3)cc(C(O)c3cncn3C)c2)cc1` (some centres unmarked) [Compound 354], the IC50 in test [1] and in test [2] was under 100 nM throughout.
